The record followed here is patent US20210323913A1, “SIGMA RECEPTOR BINDERS” (BOARD OF REGENTS, THE UNIVERSITY OF TEXAS SYSTEM, priority 2016, published 2021).

The target in one assay is sigma 2 receptor (Homo sapiens, UniProt Q5BJF2). As to the kind of experiment: Sigma 2 receptor radioligand competition binding. Particulars: for Ki ratio Sig1R/Sig2R: Table 1, ratio of Sig1R Ki to Sig2R Ki.
The next assay concerns the target D3 (Homo sapiens, UniProt P35462). As to the kind of experiment: Radioligand competition binding, D3. Particulars: Table 5; Cheng-Prusoff from best fit IC50; one value marked (AVE).
In the next assay the target is PBR (UniProt P16257). As to the kind of experiment: Radioligand competition binding, PBR. The conditions noted are these: Table 5; Cheng-Prusoff from best fit IC50; one value marked (AVE).
For another assay, the target named is Alpha2C (Homo sapiens, UniProt P18825). Description: Radioligand competition binding, Alpha2C. The conditions noted are these: Table 5; Cheng-Prusoff from best fit IC50.
For a further assay, the target named is H1 (Homo sapiens, UniProt P35367). Description: Radioligand competition binding, H1. Particulars: Table 5; Cheng-Prusoff from best fit IC50.
A further assay deals with MOR (Homo sapiens, UniProt P35372). Description: Radioligand competition binding, MOR. The conditions noted are these: Table 5; Cheng-Prusoff from best fit IC50.
The next assay has as its target 5-HT2B (Homo sapiens, UniProt P41595). Description: Radioligand competition binding, 5-HT2B. The conditions noted are these: Table 5; Cheng-Prusoff from best fit IC50.
For the next assay, the target named is KOR (Homo sapiens, UniProt P41145). Description: Radioligand competition binding, KOR. Particulars: Table 5; Cheng-Prusoff from best fit IC50; some values marked (AVE).
The next assay deals with 5-HT7 (Homo sapiens, UniProt P34969). As to the kind of experiment: Radioligand competition binding, 5-HT7. Particulars: Table 5; Cheng-Prusoff from best fit IC50.
The target of another assay is Alpha2B (Homo sapiens, UniProt P18089). As to the kind of experiment: Radioligand competition binding, Alpha2B. Particulars: Table 5; Cheng-Prusoff from best fit IC50.
For a further assay, the target named is H2 (Homo sapiens, UniProt P25021). As to the kind of experiment: Radioligand competition binding, H2. Particulars: Table 5; Cheng-Prusoff from best fit IC50.
A further assay concerns the target sigma 1 receptor (Homo sapiens, UniProt Q99720). As to the kind of experiment: Sigma 1 receptor radioligand competition binding.
The target of another assay is D5 (Homo sapiens, UniProt P21918). As to the kind of experiment: Radioligand competition binding, D5. Particulars: Table 5; Cheng-Prusoff from best fit IC50.
The target in the next assay is 5-ht5a (Homo sapiens, UniProt P47898). As to the kind of experiment: Radioligand competition binding, 5-ht5a. The conditions noted are these: Table 5; Cheng-Prusoff from best fit IC50.
A further assay deals with 5-HT1D (Homo sapiens, UniProt P28221). As to the kind of experiment: Radioligand competition binding, 5-HT1D. Particulars: Table 5; Cheng-Prusoff from best fit IC50.
A further assay concerns the target M5 (Homo sapiens, UniProt P08912). As to the kind of experiment: Radioligand competition binding, M5. Particulars: Table 5; Cheng-Prusoff from best fit IC50.
The next assay has as its target T1, 5-HT1A (Homo sapiens, UniProt P08908).
T1 sequence (P08908 1-422): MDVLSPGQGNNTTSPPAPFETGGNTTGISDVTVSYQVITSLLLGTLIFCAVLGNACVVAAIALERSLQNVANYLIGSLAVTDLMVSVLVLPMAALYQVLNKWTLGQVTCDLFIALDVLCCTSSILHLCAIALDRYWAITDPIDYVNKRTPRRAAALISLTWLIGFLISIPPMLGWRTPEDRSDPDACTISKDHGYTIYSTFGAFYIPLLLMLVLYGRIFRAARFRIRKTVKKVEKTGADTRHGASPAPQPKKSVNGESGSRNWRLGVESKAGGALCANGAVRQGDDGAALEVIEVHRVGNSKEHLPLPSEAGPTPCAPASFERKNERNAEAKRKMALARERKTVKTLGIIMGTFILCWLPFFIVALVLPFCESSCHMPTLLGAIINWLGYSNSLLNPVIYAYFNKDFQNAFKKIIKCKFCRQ
Description: Radioligand competition binding, 5-HT1A. The conditions noted are these: Table 5; Cheng-Prusoff from best fit IC50.

The next assay deals with H4 (Homo sapiens, UniProt Q9H3N8). As to the kind of experiment: Radioligand competition binding, H4. The conditions noted are these: Table 5; Cheng-Prusoff from best fit IC50; value marked (AVE).
The next assay has as its target T2, 5-HT2C (Homo sapiens, UniProt P28335).
T2 sequence (P28335 33-458): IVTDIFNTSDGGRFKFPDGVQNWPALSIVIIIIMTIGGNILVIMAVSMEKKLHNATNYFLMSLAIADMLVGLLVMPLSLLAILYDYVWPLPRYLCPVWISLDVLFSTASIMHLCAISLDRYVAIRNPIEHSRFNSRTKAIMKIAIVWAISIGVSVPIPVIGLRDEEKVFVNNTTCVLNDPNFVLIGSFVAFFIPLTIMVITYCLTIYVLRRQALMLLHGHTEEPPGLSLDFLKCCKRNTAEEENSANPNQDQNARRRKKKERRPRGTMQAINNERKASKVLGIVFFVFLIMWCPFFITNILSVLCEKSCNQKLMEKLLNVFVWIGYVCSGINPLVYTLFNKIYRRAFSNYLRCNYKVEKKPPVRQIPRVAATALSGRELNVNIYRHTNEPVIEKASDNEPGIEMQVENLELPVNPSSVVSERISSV
As to the kind of experiment: Radioligand competition binding, 5-HT2C. The conditions noted are these: Table 5; Cheng-Prusoff from best fit IC50.

For the next assay, the target named is 5-HT6 (Homo sapiens, UniProt P50406). Description: Radioligand competition binding, 5-HT6. The conditions noted are these: Table 5; Cheng-Prusoff from best fit IC50.
For the next assay, the target named is 5-HT1B (Homo sapiens, UniProt P28222). Description: Radioligand competition binding, 5-HT1B. The conditions noted are these: Table 5; Cheng-Prusoff from best fit IC50.
The target of another assay is D1 (Homo sapiens, UniProt P21728). Description: Radioligand competition binding, D1. The conditions noted are these: Table 5; Cheng-Prusoff from best fit IC50; some values marked (AVE).
Another assay deals with T3, D4 (Homo sapiens, UniProt P21917).
T3 sequence (P21917 1-419): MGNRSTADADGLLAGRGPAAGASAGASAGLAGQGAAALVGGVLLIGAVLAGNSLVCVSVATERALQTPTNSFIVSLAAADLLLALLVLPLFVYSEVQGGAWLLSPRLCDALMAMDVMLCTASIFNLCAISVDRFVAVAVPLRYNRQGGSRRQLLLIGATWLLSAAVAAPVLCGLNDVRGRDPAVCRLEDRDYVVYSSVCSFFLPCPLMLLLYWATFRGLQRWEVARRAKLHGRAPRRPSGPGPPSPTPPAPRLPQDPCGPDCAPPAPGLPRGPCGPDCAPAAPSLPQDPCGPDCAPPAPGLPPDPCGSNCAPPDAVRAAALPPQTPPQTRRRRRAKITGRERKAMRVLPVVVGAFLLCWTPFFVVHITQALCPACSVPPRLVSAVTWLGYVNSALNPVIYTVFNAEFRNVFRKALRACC
Description: Radioligand competition binding, D4. Particulars: Table 5; Cheng-Prusoff from best fit IC50.

The next assay concerns the target Alpha1A (Homo sapiens, UniProt P35348). As to the kind of experiment: Radioligand competition binding, Alpha1A. The conditions noted are these: Table 5; Cheng-Prusoff from best fit IC50.
For another assay, the target named is 5-HT2A (Homo sapiens, UniProt P28223). As to the kind of experiment: Radioligand competition binding, 5-HT2A. The conditions noted are these: Table 5; Cheng-Prusoff from best fit IC50.
The next assay has as its target Alpha1D (Homo sapiens, UniProt P25100). As to the kind of experiment: Radioligand competition binding, Alpha1D. Particulars: Table 5; Cheng-Prusoff from best fit IC50.
The target of a further assay is H3 (Homo sapiens, UniProt Q9Y5N1). As to the kind of experiment: Radioligand competition binding, H3. Particulars: Table 5; Cheng-Prusoff from best fit IC50.
For a further assay, the target named is T4, Alpha2A (Homo sapiens, UniProt P08913).
T4 sequence (P08913 1-465): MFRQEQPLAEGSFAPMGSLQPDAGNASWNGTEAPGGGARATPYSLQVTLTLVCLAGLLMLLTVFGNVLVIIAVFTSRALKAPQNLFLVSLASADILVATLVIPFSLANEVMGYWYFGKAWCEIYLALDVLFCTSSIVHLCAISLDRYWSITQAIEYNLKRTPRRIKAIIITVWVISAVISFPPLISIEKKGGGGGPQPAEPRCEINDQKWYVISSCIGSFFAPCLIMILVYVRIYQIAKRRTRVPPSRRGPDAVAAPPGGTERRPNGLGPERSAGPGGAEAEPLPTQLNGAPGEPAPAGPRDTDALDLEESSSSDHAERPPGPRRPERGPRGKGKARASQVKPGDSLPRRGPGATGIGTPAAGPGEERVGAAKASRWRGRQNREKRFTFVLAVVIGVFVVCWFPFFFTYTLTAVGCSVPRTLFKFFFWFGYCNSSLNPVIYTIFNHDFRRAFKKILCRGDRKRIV
As to the kind of experiment: Radioligand competition binding, Alpha2A. Particulars: Table 5; Cheng-Prusoff from best fit IC50.

A further assay addresses Beta3 (Homo sapiens, UniProt P13945). As to the kind of experiment: Radioligand competition binding, Beta3. Particulars: Table 5; Cheng-Prusoff from best fit IC50.
Another assay deals with M4 (Homo sapiens, UniProt P08173). As to the kind of experiment: Radioligand competition binding, M4. Particulars: Table 5; Cheng-Prusoff from best fit IC50; one value marked (AVE).
The mark [1] stands for this setting: Table 5, Cheng-Prusoff from best fit IC50, read-out: Ki Sigma 2.
Setting [2] is: Table 1, 7-piperazinyl-tetrahydronaphthalene analogs, read-out: Ki (nM) Sig2R.
[3] abbreviates: Table 1, 7-piperazinyl-tetrahydronaphthalene analogs, read-out: Ki (nM) Sig1R.

Molecules are shown by their SMILES. Like-named read-outs stand apart in the source and are kept apart here.

For the compound `CN(Cc1cc(Cl)cc(Cl)c1)C1CCCc2ccc(N3CCOCC3)cc21` (stereo not drawn) [MDW-1-131, N-(3,5-dichlorobenzyl)-N-methyl-7-morpholino-1,2,3,4-tetrahydronaphthalen-1-amine], the inhibitory constant (Ki) came to 522 nM on sigma 2 receptor (setting [1]); 3390 nM at D3; 0.902 µM on PBR; 2540 nM on Alpha2C; 182 nM on H1.

For `CN(CCCO)C1CCCc2ccc(-c3ccc(C(F)(F)F)cc3)cc21` (stereo not drawn) [MDW-1-144, 3-(Methyl(7-(4-(trifluoromethyl)phenyl)-1,2,3,4-tetrahydronaphthalen-1-yl)amino)propan-1-ol], the Ki at MOR came to 307 nM; on sigma 2 receptor (setting [1]) it was 50 nM; on 5-HT2B, 3590 nM; at KOR it was 154 nM; on 5-HT7, 2400 nM; on Alpha2B, 524 nM. The Ki on H2 was 327 nM; on sigma 1 receptor (Table 5, Cheng-Prusoff from best fit IC50, read-out: Ki Sigma 1), 1270 nM; at D5 it was over 10 µM; on 5-ht5a, over 10000 nM.

Turning to `CCCN1CCN(c2ccc3c(c2)C(N(C)C(=O)OCc2ccccc2)CCC3)CC1` (stereo not drawn) [MDW-2-76, Benzyl methyl(7-(4-propylpiperazin-1-yl)-1,2,3,4-tetrahydronaphthalen-1-yl)carbamate], the Ki on 5-HT1D turned out to be 135 nM; on M5, 6.62 µM; on 5-HT1A it was 156 nM; at sigma 2 receptor (setting [2]), 6 nM; at sigma 2 receptor (setting [1]), 5.5 nM; on H4, 5.88 µM. Also, the inhibition constant Ki on D3 stood at 438 nM; at 5-HT2C, 762 nM; on 5-HT6, 778 nM; on 5-HT1B it was 362 nM; on 5-HT2B it was 100 nM; at 5-HT7, 459 nM. The Ki at Alpha2B was 3330 nM; at D1 it was 690 nM; at D4 it was 6.66 µM; on Alpha1A it was 2360 nM; at 5-HT2A, 315 nM; at Alpha1D it was 2600 nM. Further, the Ki at H2 was 302 nM; on PBR, 8.33 µM; on sigma 1 receptor (setting [3]) it was 200 nM; on D5 it was 3.96 µM; at H1, 20 nM; on H3, 1350 nM. At Alpha2A, the Ki was determined as 1030 nM. For the same compound, the “Ki ratio Sig1R/Sig2R” value at sigma 2 receptor is 36.

With `CN(C(=O)OCc1ccccc1)C1CCCc2ccc(N3CCN(CCCO)CC3)cc21` (stereo not drawn) [MDW-1-177, Benzyl (7-(4-(3-hydroxypropyl)piperazin-1-yl)-1,2,3,4-tetrahydronaphthalen-1-yl)(methyl)carbamate], the Ki is 136 nM on 5-HT1D; 528 nM at 5-HT1A; 21 nM on sigma 2 receptor (setting [2]); 21 nM on sigma 2 receptor (setting [1]); 597 nM on D3; 1230 nM at 5-HT6. Further, the Ki at 5-HT1B was 261 nM; at 5-HT2B, 99 nM; at 5-HT7, 585 nM; at D1 it was 1350 nM; on D4, over 10 µM; on 5-HT2A it was 632 nM. Moreover, the inhibition constant (Ki) on H2 amounted to 291 nM; on sigma 1 receptor (setting [3]), 474 nM; at Beta3, 8.04 µM. Also, the “Ki ratio Sig1R/Sig2R” value on sigma 2 receptor turned out to be 23.

Take `CN(C(=O)OCc1ccccc1)C1CCCc2ccc(N3CCN(C4CCCC4)CC3)cc21` (stereo not drawn) [MDW-1-140, Benzyl (7-(4-cyclopentylpiperazin-1-yl)-1,2,3,4-tetrahydronaphthalen-1-yl)(methyl)carbamate]: the inhibition constant (Ki) came to 509 nM at 5-HT1D; 2980 nM on M4; 3.69 µM at M5; 367 nM at 5-HT1A; 2 nM on sigma 2 receptor (setting [2]); 2.1 nM on sigma 2 receptor (setting [1]). Further, the Ki is 462 nM on D3; 1460 nM at 5-HT2C; 1020 nM at 5-HT6; 263 nM at 5-HT2B; at least 10000 nM on KOR; 1480 nM on 5-HT7. For the same compound, the Ki is 457 nM on D1; 547 nM at 5-HT2A; 1810 nM on Alpha1D; 211 nM on H2; 4.06 µM at PBR; 86 nM on sigma 1 receptor (setting [3]). Besides, the inhibition constant (Ki) at D5 was found to be 2.6 µM; at H1, 28 nM; at H3, 965 nM; on 5-ht5a it was 2500 nM; at Alpha2A, 1110 nM. For the same compound, the “Ki ratio Sig1R/Sig2R” value on sigma 2 receptor is 41.
